Results from patent US20250333397A1 (REMIX THERAPEUTICS INC., priority 2021, published 2025).
pIC50: −log10 of the molar value. Where a name gives a salt, the structure may show the parent alone. Read-outs that look alike come from different tables or passages of the source.

Legend:
Type in all cases: cell-based, human
[1] = tested on: HTT mRNA; test: RT-qPCR splicing assay, HTT canonical (CJ) and alternative (AJ) junction mRNA; details: Homo sapiens; for AC50: read-out: HTT AJ (AC50, increase in AJ mRNA)
Method: (§1) Compounds described herein were used to modulate RNA transcript abundance in cells. The expression of a target mRNA was measured by detecting the formation of an exon-exon junction in the canonical transcript (CJ). A compound mediated exon-inclusion event was detected by observing an increase in formation of a new junction with an alternative exon (AJ). Real-time qPCR assays were used to detect these splicing switches and interrogate the potency of various compounds towards different target genes. A high-throughput real time quantitative PCR (RT-qPCR) assay was developed to measure these two isoforms of the mRNA (CJ and AJ) for exemplary genes, such as HTT, SMN2, and MYB, together with a control housekeeping gene, GAPDH or GUSB or PPIA, used for normalization. Briefly, the A673 or K562 cell line was treated with various compounds described herein (e.g., compounds of Formula (I), (II), (III), (IV)). After treatment, the levels of the HTT, MYB, or SMN2 mRNA targets were determined from each sample of cell lysate by cDNA synthesis followed by qPCR.
(§2) The A673 cell line was cultured in DMEM with 10% FBS. Cells were diluted with full growth media and plated in a 96-well plate (15,000 cells in 100ul media per well). The plate was incubated at 37° C. with 5% CO2 for 24 hours to allow cells to adhere. An 11-point 3-fold serial dilution of the compounds was made in DMSO then diluted in media in an intermediate plate. Compounds were transferred from the intermediate plate to the cell plate with the top dose at a final concentration of 10 uM in the well. Final DMSO concentration was kept at or below 0.25%. The cell plate was returned to the incubator at 37° C. with 5% CO2 for an additional 24 hours.
(§3) The K562 cell line was cultured in IMDM with 10% FBS. For K562, cells were diluted with full growth media and plated in either a 96-well plate (50,000 cells in 50 uL media per well) or a 384-well plate (8,000-40,000 cells in 45 uL media per well). An 11-point 3-fold serial dilution of the compounds were made in DMSO then diluted in media in an intermediate plate.
(§4) Compound was transferred from the intermediate plate to the cell plate with the top dose at a final concentration of 10 uM in the well. Final DMSO concentration was kept at or below 0.25%.
(§5) Final volume was 100 uL for 96-well plate and 50 uL for 384-well plate. The cell plate was then placed in an incubator at 37° C. with 5% CO2 for 24 hours.
(§6) The cells were then gently washed with 50 uL-100 uL cold PBS before proceeding to addition of lysis buffer. 30 uL-50 μL of room temperature lysis buffer with DNAse I (and optionally RNAsin) was added to each well. Cells were shaken/mixed thoroughly at room temperature for 5-10 minutes for lysis to take place and then 3 uL-5 μL of room temperature stop solution was added and wells were shaken/mixed again. After 2-5 minutes, the cell lysate plate was transferred to ice for RT-qPCR reaction setup. The lysates could also be frozen at −80° C. for later use.
(§7) In some cases, a direct lysis buffer was used. An appropriate volume of 3× lysis buffer (10 mM Tris, 150 mM NaCl, 1.5%-2.5% Igepal and 0.1-1 U/uL RNAsin, pH 7.4) was directly added to either K562 or A673 cells in media and mixed by pipetting 3 times. The plates were then incubated at room temperature with shaking/rocking for 20-50 minutes to allow for lysis to take place. After this time, the cell lysate plate was transferred to ice to set up for the RT-qPCR reactions. The lysates could also be frozen at −80° C. for later use.
(§8) To set up 10 uL RT-qPCR reactions, cell lysates were transferred to 384-well qPCR plates containing the master mix according to the table below. The plates were sealed, gently vortexed, and spun down before the run. The volumes were adjusted accordingly in some instances where the reaction was carried in 20 μL. The table below summarizes the components of the RT-qPCR reactions: […]

[2] = tested on: MYB mRNA; test: RT-qPCR splicing assay, MYB canonical (CJ) and alternative (AJ) junction mRNA; details: Homo sapiens; for AC50: read-out: MYB AJ (AC50, increase in AJ mRNA)
Method: as §1, §2, §3, §4, §5, §6, §7, §8

[3] = tested on: SMN2 mRNA; test: RT-qPCR splicing assay panel, SMN2 canonical junction (CJ) mRNA; details: Homo sapiens, canonical junction (CJ) mRNA, RT-qPCR panel, Table 4A; read-out: SMN2, decrease in CJ mRNA levels, IC50
Method: as §1, §2, §3, §4, §5, §6, §7, §8

[4] = tested on: Target C mRNA; test: RT-qPCR splicing assay panel, Target C canonical junction (CJ) mRNA; details: Homo sapiens, canonical junction (CJ) mRNA, RT-qPCR panel, Table 4A; read-out: Target C, decrease in CJ mRNA levels, IC50
Method: as §1, §2, §3, §4, §5, §6, §7, §8

[5] = 24 h, Table 3A, A673 or K562 cells, 24 h treatment
[6] = 24 h, Table 3A, A673 or K562 cells, 24 h treatment, read-out: HTT CJ (IC50, decrease in CJ mRNA)
[7] = canonical junction (CJ) mRNA, RT-qPCR panel, Table 4A, read-out: HTT, decrease in CJ mRNA levels, IC50
[8] = 24 h, Table 3A, A673 or K562 cells, 24 h treatment, read-out: MYB CJ (IC50, decrease in CJ mRNA)
[9] = canonical junction (CJ) mRNA, RT-qPCR panel, Table 4A, read-out: MYB, decrease in CJ mRNA levels, IC50

Row | pIC50 [1, 6] | pIC50 [1, 7] | pIC50 [2, 8] | pIC50 [2, 9] | pIC50 [3] | pIC50 [4] | SMILES | AC50 [1, 5] [nM] | AC50 [2, 5] [nM]
1 | < 5.00 | < 5.00 | < 5.00 | < 5.00 | < 5.00 | < 5.00 | Oc1cc(-c2cn[nH]c2)ccc1-c1ccc(N2CCC(NC3(C(F)(F)F)CC3)C2)nn1 (stereo not shown) [Compound 110, 5-(1H-pyrazol-4-yl)-2-[6-(3-{[1-(trifluoromethyl)cyclopropyl]amino}pyrrolidin-1-yl)pyridazin-3-yl]phenol] | > 10000 | > 10000
2 | > 7.00 | > 7.00 | 6.00 to 7.00 | 6.00 to 7.00 | > 7.00 | 6.00 to 7.00 | Oc1cc(-c2cn[nH]c2)ccc1-c1ccc(N2CCC(NC3(CF)CC3)C2)nn1 (stereo not shown) [Compound 112, 2-[6-(3-{[1-(fluoromethyl)cyclopropyl]amino}pyrrolidin-1-yl)pyridazin-3-yl]-5-(1H-pyrazol-4-yl)phenol] | < 100 | < 100
3 | > 7.00 | > 7.00 | 6.00 to 7.00 | 6.00 to 7.00 | > 7.00 | > 7.00 | Oc1cc(-c2cn[nH]c2)ccc1-c1ccc(N2CC[C@H](NC3CCC3)C2)nn1 [Compound 116, 2-{6-[(3S)-3-(cyclobutylamino)pyrrolidin-1-yl]pyridazin-3-yl}-5-(1H-pyrazol-4-yl)phenol] | < 100 | 100 to 1000
4 | 5.00 to 6.00 | 5.00 to 6.00 | < 5.00 | < 5.00 | 6.00 to 7.00 | < 5.00 | Oc1cc(-c2cn[nH]c2)ccc1-c1ccc(N2CCC(NC3(C(F)F)CC3)C2)nn1 (stereo not shown) [Compound 117, 2-[6-(3-{[1-(difluoromethyl)cyclopropyl]amino}pyrrolidin-1-yl)pyridazin-3-yl]-5-(1H-pyrazol-4-yl)phenol] | 1000 to 10000 | > 10000
5 | 6.00 to 7.00 | 6.00 to 7.00 | 5.00 to 6.00 | 5.00 to 6.00 | 6.00 to 7.00 | 5.00 to 6.00 | NCCNC1CCN(c2ccc(-c3ccc(-c4cn[nH]c4)cc3O)nn2)C1 (stereo not shown) [Compound 208] | 100 to 1000 | 100 to 1000

Continued, molecule first:

Row | SMILES | pIC50 [1, 6] | pIC50 [1, 7] | pIC50 [2, 8] | pIC50 [2, 9] | pIC50 [3] | pIC50 [4] | AC50 [1, 5] [nM] | AC50 [2, 5] [nM]
6 | CC(C)(C)NC1CCN(c2ccc(-c3ccc(-n4cccn4)c(O)c3)nn2)C1 (stereo not shown) [Compound 109, 5-{6-[3-(tert-butylamino)pyrrolidin-1-yl]pyridazin-3-yl}-2-(pyrazol-1-yl)phenol trifluoroacetate] | 5.00 to 6.00 | 5.00 to 6.00 | < 5.00 | < 5.00 | 5.00 to 6.00 | < 5.00 | > 10000 | > 10000
7 | CC1(NC2CCN(c3ccc(-c4cc(F)c(-c5cn[nH]c5)cc4O)nn3)C2)CC1 (stereo not shown) [Compound 111, 4-fluoro-2-(6-{3-[(1-methylcyclopropyl)amino]pyrrolidin-1-yl}pyridazin-3-yl)-5-(1H-pyrazol-4-yl)phenol] | > 7.00 | > 7.00 | > 7.00 | > 7.00 | > 7.00 | > 7.00 | < 100 | < 100
8 | Oc1cc(-c2cn[nH]c2)c(F)cc1-c1ccc(N2CC[C@H](NC3CCC3)C2)nn1 [Compound 113, 2-{6-[(3S)-3-(cyclobutylamino)pyrrolidin-1-yl]pyridazin-3-yl}-4-fluoro-5-(1H-pyrazol-4-yl)phenol] | > 7.00 | > 7.00 | > 7.00 | > 7.00 | > 7.00 | > 7.00 | < 100 | < 100
9 | Oc1cc(-c2cn[nH]c2)ccc1-c1ccc(N2CC[C@@H](NC3CCC3)C2)nn1 [Compound 114, 2-{6-[(3R)-3-(cyclobutylamino)pyrrolidin-1-yl]pyridazin-3-yl}-5-(1H-pyrazol-4-yl)phenol] | > 7.00 | > 7.00 | 6.00 to 7.00 | 6.00 to 7.00 | > 7.00 | 6.00 to 7.00 | < 100 | 100 to 1000
10 | Oc1cc(-c2cn[nH]c2)c(F)cc1-c1ccc(N2CC[C@@H](NC3CCC3)C2)nn1 [Compound 115, 2-{6-[(3R)-3-(cyclobutylamino)pyrrolidin-1-yl]pyridazin-3-yl}-4-fluoro-5-(1H-pyrazol-4-yl)phenol] | > 7.00 | > 7.00 | > 7.00 | > 7.00 | > 7.00 | > 7.00 | < 100 | < 100
11 | Cc1ncc(-c2cc(O)c(-c3ccc(N4CC[C@@H](NC5CCC5)C4)nn3)cc2F)s1 [Compound 146, 2-{6-[(3R)-3-(cyclobutylamino)pyrrolidin-1-yl]pyridazin-3-yl}-4-fluoro-5-(2-methyl-1,3-thiazol-5-yl)phenol] | > 7.00 | > 7.00 | > 7.00 | > 7.00 | > 7.00 | > 7.00 | < 100 | < 100
12 | COc1cc(-c2ccc(-c3ccc(N4CC[C@@H](NC(C)(C)C)C4)nn3)c(O)c2)cnn1 [Compound 209, 2-{6-[(3R)-3-(tert-butylamino)pyrrolidin-1-yl]pyridazin-3-yl}-5-(6-methoxypyridazin-4-yl)phenol] | > 7.00 | > 7.00 | > 7.00 | > 7.00 | > 7.00 | > 7.00 | < 100 | < 100
13 | COc1cc(-c2ccc(-c3ccc(N4CC[C@H](NC(C)(C)C)C4)nn3)c(O)c2)cnn1 [Compound 210, 2-{6-[(3S)-3-(tert-butylamino)pyrrolidin-1-yl]pyridazin-3-yl}-5-(6-methoxypyridazin-4-yl)phenol] | > 7.00 | > 7.00 | > 7.00 | > 7.00 | > 7.00 | > 7.00 | < 100 | < 100
14 | COc1cc(-c2cc(O)c(-c3ccc(N4CC[C@H](NC(C)(C)C)C4)nn3)cc2F)cnn1 [Compound 211, 2-{6-[(3S)-3-(tert-butylamino)pyrrolidin-1-yl]pyridazin-3-yl}-4-fluoro-5-(6-methoxypyridazin-4-yl)phenol] | 6.00 to 7.00 | 6.00 to 7.00 | 5.00 to 6.00 | 5.00 to 6.00 | > 7.00 | 6.00 to 7.00 | 100 to 1000 | 1000 to 10000
